Source: ChEMBL document CHEMBL1201862, “PubChem BioAssay data set” (2004)
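Protocol summary: plate cells (96-well), add compound at 5 concentrations, incubate 48 h, interpolate endpoints linearly. GI50: concentration for 50% inhibition of growth.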 Calls of active or inactive are those of the source. Cut-off read from the data, not from the text of the source: active = GI50 up to about 1.1 µM and inactive = higher.

How the values were obtained:
Assay in all cases: NCI anticancer screen, dose series, 48 h
SF-268 = test system: SF-268
UACC-62 = test system: UACC-62
M14 = test system: M14
COLO 205 = test system: COLO 205
OVCAR-4 = test system: OVCAR-4
OVCAR-3 = test system: OVCAR-3
IGROV-1 = test system: IGROV-1
EKVX = test system: EKVX
HOP-62 = test system: HOP-62
NCI-H23 = test system: NCI-H23
MCF7 = test system: MCF7
SF-539 = test system: SF-539
RXF 393 = test system: RXF 393
T47D = test system: T47D
MDA-MB-435 = test system: MDA-MB-435
Malme-3M = test system: Malme-3M
SNB-19 = test system: SNB-19
SNB-75 = test system: SNB-75
NCI-H522 = test system: NCI-H522
TK-10 = test system: TK-10

Compound | GI50 (SF-268) | GI50 (UACC-62) | GI50 (M14) | GI50 (COLO 205) | GI50 (OVCAR-4) | GI50 (OVCAR-3) | GI50 (IGROV-1) | GI50 (EKVX) | GI50 (HOP-62) | GI50 (NCI-H23) | GI50 (MCF7) | GI50 (SF-539) | GI50 (RXF 393) | GI50 (T47D) | GI50 (MDA-MB-435) | GI50 (Malme-3M) | GI50 (SNB-19) | GI50 (SNB-75) | GI50 (NCI-H522) | GI50 (TK-10)
COc1ccccc1/C=N/Nc1nnc2c3ccccc3c3ncccc3c2n1 | 29.9 µM (inactive) | 48.8 µM (inactive) | 50.5 µM (inactive) | > 100 µM (inactive) | 17.8 µM (inactive) | 47.2 µM (inactive) | 53.1 µM (inactive) | 43.1 µM (inactive) | 17.1 µM (inactive) | > 100 µM (inactive) | > 100 µM (inactive) | 19 µM (inactive) | 18.1 µM (inactive) | 39.7 µM (inactive) | > 100 µM (inactive) | 49.1 µM (inactive) | 39.2 µM (inactive) | 19.3 µM (inactive) | 70.6 µM (inactive) | 28.6 µM (inactive)
CC(C)[Si]1(C(C)C)OCC2OC(n3ccc(=O)[nH]c3=O)C([Se]c3ccccc3)C2O[Si](C(C)C)(C(C)C)O1 (stereo not given) | 2.93 µM (inactive) | 4.71 µM (inactive) | 8.24 µM (inactive) | 4.86 µM (inactive) | 2.88 µM (inactive) | 4.52 µM (inactive) | 2.44 µM (inactive) | 4.93 µM (inactive) | 12.3 µM (inactive) | 3.57 µM (inactive) | 2.75 µM (inactive) | 7.96 µM (inactive) | 4.55 µM (inactive) | 6.71 µM (inactive) | 5.42 µM (inactive) | 2.81 µM (inactive) | 0.261 µM (active) | 0.33 µM (active) | 2.1 µM (inactive) | 7.46 µM (inactive)
O=C1c2c(Br)sc(Br)c2[C@@H](Cl)[C@H]1Cl | 19.1 µM (inactive) | 18.2 µM (inactive) | 19.7 µM (inactive) | 15.7 µM (inactive) | 18.2 µM (inactive) | 14.3 µM (inactive) | 17.7 µM (inactive) | 21.7 µM (inactive) | 17.9 µM (inactive) | 12.9 µM (inactive) | 21.5 µM (inactive) | 12.5 µM (inactive) | 15.5 µM (inactive) | 19 µM (inactive) | 19.3 µM (inactive) | 19.1 µM (inactive) | 18.9 µM (inactive) | 17.6 µM (inactive) | 3.07 µM (inactive) | 29 µM (inactive)
Nc1c(S(=O)(=O)O)cc(S(=O)(=O)O)c2ccc(/N=N/c3ccccc3)c(O)c12 | > 100 µM (inactive) | > 100 µM (inactive) | > 100 µM (inactive) | > 100 µM (inactive) | > 100 µM (inactive) | > 100 µM (inactive) | > 100 µM (inactive) | > 100 µM (inactive) | > 100 µM (inactive) | > 100 µM (inactive) | > 100 µM (inactive) | > 100 µM (inactive) | > 100 µM (inactive) | > 100 µM (inactive) | > 100 µM (inactive) | > 100 µM (inactive) | > 100 µM (inactive) | > 100 µM (inactive) | > 100 µM (inactive) | > 100 µM (inactive)
Cc1nc(-c2ccccc2)cn2c1nc1ccccc12 | 28.5 µM (inactive) | 14.7 µM (inactive) | 30.5 µM (inactive) | 37.9 µM (inactive) | 20.9 µM (inactive) | 26.7 µM (inactive) | 19.9 µM (inactive) | 25.2 µM (inactive) | 20.9 µM (inactive) | 25.9 µM (inactive) | 2.8 µM (inactive) | 23.1 µM (inactive) | 19.6 µM (inactive) | 2.05 µM (inactive) | 19.2 µM (inactive) | 23.9 µM (inactive) | 29.5 µM (inactive) | 17.2 µM (inactive) | 24.9 µM (inactive) | 29.3 µM (inactive)
COC(=O)C12CCC(C(=O)OC)(Cc3c(c4ccccc4n3S(=O)(=O)c3ccccc3)C1)C2=O (stereo not given) | > 61 µM (inactive) | > 40.5 µM (inactive) | > 63.8 µM (inactive) | > 100 µM (inactive) | > 61.7 µM (inactive) | > 61.8 µM (inactive) | > 26.7 µM (inactive) | > 100 µM (inactive) | > 100 µM (inactive) | > 100 µM (inactive) | 63.8 µM (inactive) | > 40.6 µM (inactive) | 1.61 µM (inactive) | > 100 µM (inactive) | > 100 µM (inactive) | 36.1 µM (inactive) | > 56.4 µM (inactive) | > 60.7 µM (inactive) | 20 µM (inactive) | > 56.2 µM (inactive)
Oc1ccc2ccccc2c1CN(Cc1c(O)ccc2ccccc12)C1CCCCC1 | 14.1 µM (inactive) | 16.8 µM (inactive) | 15.2 µM (inactive) | 16.1 µM (inactive) | 18.7 µM (inactive) | 19.1 µM (inactive) | 11.8 µM (inactive) | 15.4 µM (inactive) | 29.7 µM (inactive) | 17.1 µM (inactive) | 15.5 µM (inactive) | 16 µM (inactive) | 18.2 µM (inactive) | 31.9 µM (inactive) | 19.2 µM (inactive) | 15.8 µM (inactive) | 28.2 µM (inactive) | 21.8 µM (inactive) | 13.4 µM (inactive) | 17.3 µM (inactive)
O=C(Nc1ccccc1)O/N=C(/CBr)c1ccccc1 | 14.3 µM (inactive) | 12.3 µM (inactive) | 6.79 µM (inactive) | 15.7 µM (inactive) | 15.1 µM (inactive) | 17.7 µM (inactive) | 14.6 µM (inactive) | 17.1 µM (inactive) | 24.3 µM (inactive) | 7.35 µM (inactive) | 16.7 µM (inactive) | 7.11 µM (inactive) | 31.9 µM (inactive) | 11.5 µM (inactive) | 4.84 µM (inactive) | 13 µM (inactive) | 20.6 µM (inactive) | 15.2 µM (inactive) | 8.85 µM (inactive) | 18.1 µM (inactive)
CN1CCN(c2cc3nc4cc(O)cc(O)c4c(O)c3cc2N)CC1 | 15.9 µM (inactive) | 1.57 µM (inactive) | 37.1 µM (inactive) | 14 µM (inactive) | 27.4 µM (inactive) | 20.7 µM (inactive) | 20.2 µM (inactive) | 19.4 µM (inactive) | 33.6 µM (inactive) | 40.6 µM (inactive) | 17.7 µM (inactive) | 0.608 µM (active) | 20.7 µM (inactive) | 21.6 µM (inactive) | 18.1 µM (inactive) | 24.6 µM (inactive) | 37.1 µM (inactive) | 18.2 µM (inactive) | 19.5 µM (inactive) | 30.7 µM (inactive)
CC(NNC(=O)c1ccncc1)c1ccc(F)cc1 (stereo not given) | > 100 µM (inactive) | > 100 µM (inactive) | 41.8 µM (inactive) | > 100 µM (inactive) | > 100 µM (inactive) | > 100 µM (inactive) | > 100 µM (inactive) | > 100 µM (inactive) | > 100 µM (inactive) | > 100 µM (inactive) | > 100 µM (inactive) | > 100 µM (inactive) | > 100 µM (inactive) | > 100 µM (inactive) | > 100 µM (inactive) | > 100 µM (inactive) | > 100 µM (inactive) | > 100 µM (inactive) | > 100 µM (inactive) | > 100 µM (inactive)
O=C(O)c1cncc(C(=O)O)c1 | > 100 µM (inactive) | > 100 µM (inactive) | > 100 µM (inactive) | > 100 µM (inactive) | > 100 µM (inactive) | > 100 µM (inactive) | > 100 µM (inactive) | > 100 µM (inactive) | > 100 µM (inactive) | > 100 µM (inactive) | > 100 µM (inactive) | > 100 µM (inactive) | > 100 µM (inactive) | > 100 µM (inactive) | > 100 µM (inactive) | > 100 µM (inactive) | > 100 µM (inactive) | > 100 µM (inactive) | > 100 µM (inactive) | > 100 µM (inactive)
O=C1C(Cl)=C(Cl)C(=O)N1c1ccc(F)cc1 [FLUOROIMIDE] | 28.8 µM (inactive) | 14.7 µM (inactive) | 19.5 µM (inactive) | 14.4 µM (inactive) | 16.3 µM (inactive) | 17.5 µM (inactive) | 18.6 µM (inactive) | 21.4 µM (inactive) | > 67.9 µM (inactive) | 17.5 µM (inactive) | 20.7 µM (inactive) | 23.5 µM (inactive) | 22.5 µM (inactive) | 17.8 µM (inactive) | 17.9 µM (inactive) | 17.2 µM (inactive) | > 58.3 µM (inactive) | 12.8 µM (inactive) | 3.81 µM (inactive) | 18.7 µM (inactive)
Cc1sc(/N=C/c2c[nH]c3ccccc23)c(C#N)c1C | 85.3 µM (inactive) | 20.7 µM (inactive) | 22 µM (inactive) | > 100 µM (inactive) | 35.2 µM (inactive) | 11.2 µM (inactive) | 21.7 µM (inactive) | 67.9 µM (inactive) | 34.2 µM (inactive) | 54.1 µM (inactive) | 27.7 µM (inactive) | 40.4 µM (inactive) | 22.3 µM (inactive) | 18.6 µM (inactive) | 32.3 µM (inactive) | 25.9 µM (inactive) | 61.2 µM (inactive) | 37.1 µM (inactive) | 27.9 µM (inactive) | 20 µM (inactive)
CCCCc1c2c(nc3c1CCC/C3=C\c1ccccc1)C(=O)C(CN(C)C)CC2 (stereo not given) | 16.2 µM (inactive) | 20.3 µM (inactive) | 17.4 µM (inactive) | 19.1 µM (inactive) | 14.3 µM (inactive) | 19.5 µM (inactive) | 18.3 µM (inactive) | 18.5 µM (inactive) | 16.5 µM (inactive) | 16.5 µM (inactive) | 3.37 µM (inactive) | 20.7 µM (inactive) | 16.3 µM (inactive) | 3.61 µM (inactive) | 17.2 µM (inactive) | 22.1 µM (inactive) | 18.3 µM (inactive) | 18.1 µM (inactive) | 13.8 µM (inactive) | 15.7 µM (inactive)
